Reference: US20050181034A1, “Formulation of liposomal derivatives of phenylalanine” (WILEX AG, priority 2002, published 2005)
Where two headings read alike, the source gives them in different places.

Experiments:
[1] = Concentration in plasma, bile and organs after s.c. administration in rats; assay type: in vivo; details: rat; for concentration at 24 h: female, Wistar, sc
Procedure: (§1) Female wistar rats, 240-300 g body weight (Charles River-Wiga, Sulzfeld), were treated with the active ingredient WX-UK1 in the form of an aqueous solution or with the liposomal formulations 1-4 described in Example 1. The animals each received 1 dose/day over a period of 10 days. The administrations took place in the region of the flank (between shoulder and rear limbs) so that the animals were unable to reach the injection site with their paws. The injection sites were approx. 1 cm apart, no site being injected more than once. The first five injections took place on the left side, and the second five injections on the right side. The dose was usually 3 mg of active ingredient/kg of body weight, i.e. 0.9 mg of active ingredient was administered for an average body weight of 300 g. Radiolabeled active ingredient (3H-WX-UK1) was administered in some cases.
(§2) 24 h after the last injection, the animals were anaesthetized (ethylurethane, 1.4 g/kg i.p.), and citrated blood was obtained from the retroorbital venous plexus; citrated plasma was obtained by centrifugation at 1200×g for 10 min. The bile duct was then dissected, and bile was obtained for 15 min. Subsequently, the areas of skin at the injection sites were examined and the growth findings on dissection were recorded.
The animals were then sacrificed, and various organs (heart, kidney, liver, spleen) were dissected. The active ingredient content in the plasma, bile and organs was determined by HPLC [standard method using Nucleosil 7 C18 columns (Macherey-Nagel, Düren), acetonitrile/water/perchloric acid 30/70/0.04, 1 ml/min] after prepurification using Chromabond C18 solid-phase extraction columns (Macherey-Nagel, Duren). When ^3H-WX-UK1 was used, the active ingredient concentration was determined immediately after lyophilization of the samples by measuring the radioactivity in a liquid scintillation counter.

[2] = Tolerability of s.c. administration in rats (behavior, palpation, dissection, histology scores); assay type: in vivo; set-up: key to Behavior of the animals (score): 0: normal; slight scratching in 1st hour; 2: scratching and signs of pain; 3: still marked impairment after 2 h; key to Palpation consecutive (score): 0: unremarkable; 1: slight, isolated thickenings/indurations; 2: persistent thickenings/indurations, coalescing; 3: additional lesions, inflammations; details: rat
Procedure: as §1
The animals were weighed before each injection and observed for 2 h after each injection, and before each further injection the previous injection sites were palpated. The behavior of the animals and the palpation findings were recorded.
The following score was used to evaluate the observed impairments:
Behavior of the animals after the injection (2 h)
Consecutive Palpation Findings
as §2
The following score was used to evaluate the growth changes observed:
Final Observations, Growth Findings during Dissection
Skin samples were dissected from the regions of the injections, fixed in formalin and examined histologically (hematoxylin/eosin stain). The following score was used to evaluate the histologically visible changes: […]

[3] = s.c. 3 mg/kg 1 dose/day 10 days, 24 h after last injection, single experiment, listed as Control, 3 mg/kg

- concentration at 24 h ([1]; bile, 3 mg/kg, s.c. 3 mg/kg 1 dose/day 10 days, 24 h after last injection, single experiment, read-out: Concentration Bile): 3100 ng/mL
- concentration at 24 h ([1]; heart, 3 mg/kg, s.c. 3 mg/kg 1 dose/day 10 days, 24 h after last injection, single experiment, read-out: Organ content Heart): 840 ng/g
- concentration at 24 h ([1]; kidney, 3 mg/kg, s.c. 3 mg/kg 1 dose/day 10 days, 24 h after last injection, single experiment, read-out: Organ content Kidney): 2300 ng/g
- concentration at 24 h ([1]; liver, 3 mg/kg, s.c. 3 mg/kg 1 dose/day 10 days, 24 h after last injection, single experiment, read-out: Organ content Liver): 180 ng/g
- concentration at 24 h ([1]; plasma, 3 mg/kg, s.c. 3 mg/kg 1 dose/day 10 days, 24 h after last injection, single experiment, read-out: Concentration Plasma): < 50 ng/mL
- concentration at 24 h ([1]; spleen, 3 mg/kg, s.c. 3 mg/kg 1 dose/day 10 days, 24 h after last injection, single experiment, read-out: Organ content Spleen): 690 ng/g
- Organ content Heart [1, 3]: 1.0 µg/g
- Organ content Kidney [1, 3]: 2.5 µg/g
- Organ content Liver [1, 3]: 0.36 µg/g
- Organ content Spleen [1, 3]: 0.65 µg/g
- Concentration in the plasma ([1]; s.c., determined only by using 3H-WX-UK1): < 100 ng/mL
SMILES: CCOC(=O)N1CCN(C(=O)[C@H](Cc2cccc(C(=N)N)c2)NS(=O)(=O)c2c(C(C)C)cc(C(C)C)cc2C(C)C)CC1 [WX-UK1, Nα-(2,4,6-triisopropylphenylsulfonyl)-3-amidino-(L)-phenylalanine 4-ethoxycarbonylpiperazide]
- Behavior of the animals (score) ([2]; 2 h after s.c. injection): 1
- Impression final (score, findings during dissection) ([2]; 24 h after last injection): 2.5
- Skin histology (FIG. 1, FIG. 3, magnification 25x) ([2]; after s.c. administration): strong inflammatory reaction
- Palpation consecutive (score) ([2]; previous s.c. injection sites): 1
- Score (total impairment), Mean ([2]; s.c., mean of the two experiments): Mean = 7.5
- Score (total impairment of the animals) ([2]; s.c., sum of the part scores): 7.5
